pEC50, pIC50, pKd: −log10 of the molar value. Entries after “also recorded” stand apart in the source; their conditions may differ. Where two headings read alike, the source gives them in different places. Bridges are numbered along the chain shown (N, C = ends). Primed or numbered codes have the meaning given here. Where no end group is shown, it is not given here. [ ]: non-standard residue; d: D form. trimesoyl″ = trimesic acid scaffold joined by three amide bonds; Nal = naphthylalanine (isomer not specified); pY = N[C@@H](Cc1ccc(OP(=O)(O)O)cc1)C(=O)O; Phg = N[C@H](C(=O)O)c1ccccc1; Pra = C#CC[C@H](N)C(=O)O; dNal = D-naphthylalanine; Dap = NC[C@H](N)C(=O)O

The target of assay [1] is T1, K-Ras (Homo sapiens, UniProt P01116, G12V).
T1 construct: GST; made in house
The assay can be described thus: Competition between labeled peptide 2 and DCAI for K-Ras. The class given is binding.

In assay [2] the test system is H358 lung cancer cells. The assay can be described thus: MTT assay, growth of H358 cells. The class given is cell-based. As for the experimental part: FIG. 23a, b show on-bead assay of inhibition of Ras-Raf interaction by cyclorasin B3.
Cyclorasin B2-B4 were tested for inhibition of cell proliferation by the MTT assay.

For assay [3], the system named is WEHI-13VAR fibroblasts.
Assay [4] addresses T2, human TNFα (Homo sapiens, UniProt P01375).
T2 construct: extracellular domain of human TNFα (aa 77-233); made in house; host or cells: E. coli BL21(DE3)
The assay can be described thus: Fluorescence anisotropy (FA) binding to TNFα. The conditions noted are these: resynthesized, FITC-labeled, HPLC-purified peptide.

Assay [5] deals with K-Ras (Homo sapiens, UniProt P01116). The assay can be described thus: FA-based competition assay for binding to K-Ras.
Assay [6] addresses Ras-Raf interaction (Homo sapiens, UniProt P01116). The assay can be described thus: Qualitative on-bead assay of Ras-Raf interaction. The class given is binding. As to conditions: 10 μM peptide, Texas red-labeled K-Ras, immobilized GST-Raf.
The subject of assay [7] is WEHI-13VAR fibroblasts. The conditions noted are these: in the presence of actinomycin-D; Khabar et al.; cited from earlier work.
In assay [8] the test system is H1299 lung cancer cells. The assay can be described thus: MTT proliferation assay. The class given is cell-based. The protocol: One hundred μL of H1299 cells (0.5×10^5 cells/mL) were placed in each well of a 96-well culture plate and allowed to grow overnight. […] Ten μL of a MTT stock solution (5 mg/ml) was added into each well. The plate was incubated at 37° C. for 4 h. Then 100 μL of SDS-HCl solubilizing buffer was added into each well, and the resulting solution was mixed thoroughly. The plate was incubated at 37° C. overnight. The absorbance of the formazan product was measured at 570 nm using a Molecular Devices Spectramax M5 plate reader. Cells treated with DMSO were used as control.

The target of assay [9] is T1, K-Ras. The assay can be described thus: FA binding to K-Ras (Example 4 DCAI-bearing bicyclic peptides). The conditions noted are these: FAM- or FITC-labeled peptide; NB = no binding. The source says: To confirm the screening results, four hit sequences (peptides A2, A8, B5 and B8; hereafter named as peptides 1-4) were selected for resynthesis and tested for binding to K-Ras in solution by fluorescence anisotropy. The peptides were synthesized on Rink Amide resin, cleaved, deprotected, and purified by reversed-phase HPLC. Each peptide contains a Lys outside of the bicyclic rings to serve as the point of labeling with an amine-reactive fluorescent dye (FAM-NHS or FITC).

Assay [10] has as its target T3, TNFα-TNFR1 interaction (Homo sapiens, UniProt P01375).
T3 construct: extracellular domain of human TNFα (aa 77-233); host or cells: E. coli BL21(DE3) (TNFα)
The assay can be described thus: TNFα-TNFR1 interaction ELISA (HRP-TNFR1, immobilized TNFα). As to conditions: read-out: IC50, inhibition of TNF-alpha binding to its cognate receptor. The protocol:
Recombinant TNFR1 was purchased from R&D Systems. EZ-Link Plus activated peroxidase, an amine-reactive form of HRP was purchased from Thermo Scientific. TNFR1 was labeled with HRP by combining 50 μL of TNFR1 (1.0 μM) and 4 μL of HRP […], of Na2CO3 buffer (0.2 M Na2CO3, 0.15 M NaCl, pH 9.0) for 1 h. The resulting TNFR1-HRP conjugate was treated with NaCNBH3 to reduce the resulting Schiff base and quenched with 20 μl of ethanolamine. A Nunc 96F Maxisorp plate was coated overnight with 100 μL of […] Neutravidin (in 50 mM Na2CO3, pH 9.0) at 4° C. The solution was removed and each well was washed with 100 μL of the blocking buffer containing 3% BSA. […] The absorbance at 450 nm was measured and plotted against the peptide concentration and the IC50 value was obtained by curve fitting.
TNFα signaling begins with the binding of the TNFα trimer to the extracellular domain of TNFR1, triggering the release of the inhibitory protein, silencer of death domains (SODD), from the intracellular domain of TNFR1 (Chen, G and Goeddel, D V. Science, 2002, 296, 1634-1635). […] After washing, the amount of HRP-TNFR1 bound to each well was quantitated by ELISA using 3,3′,5,5′-tetramethylbenzidine (TMB) as HRP substrate, which was converted into 3,3′,5,5′-tetramethylbenzidine diimine by HRP resulting in absorbance at 450 nm (Martin, T L et al. J. Histochem. Cytochem., 1984, 32, 793).

Assay [11] has as its target GST-FKBP12 fusion protein (Homo sapiens, UniProt P62942). The assay can be described thus: FA binding to GST-FKBP12.
For assay [12], the target named is Ras-GTP (Homo sapiens, UniProt P01116). The assay can be described thus: FA binding to K-Ras loaded with GTP.

For the molecule `Cc1[nH]c2cc(Cl)cc(Cl)c2c1CCN` [DCAI, 4,6-dichloro-2-methyl-3-aminoethyl-indole], the pIC50 in assay [1] is 2.85. As to `CCCCCCCC/C=C\CCCCCCCC(=O)NCCCC[C@H](NC(=O)[C@@H]1CNC(=O)c2cc3cc(c2)C(=O)NC(Cc2ccc4ccccc4c2)C(=O)N[C@@H](CO)C(=O)N[C@@H](CCC(N)=O)C(=O)NC(Cc2ccc4ccccc4c2)C(=O)N[C@@H](c2ccccc2)C(=O)N[C@@H](CCCCNC3=O)C(=O)N[C@H](Cc2ccccc2)C(=O)N[C@@H](CCCNC(=N)N)C(=O)N[C@H](C(C)C)C(=O)NC(CCCNC(=N)N)C(=O)N1)C(N)=O` (some centres unmarked) [oleiylated cyclorasin B3], the “anti-proliferative activity against H358 lung cancer cells” value in [2] is listed as “modest anti-proliferative activity”. In the case of “Bicyclo(Arg-Arg-Arg-Arg-Nal-Phe-Dap-S er-D-Val-Pro-pTyr-His-Dap) (RRRR[Nal]F[Dap]S[dV]P[pY]H[Dap]; linker N-7-13 via trimesic acid (inferred)) [control bicyclic peptide, control peptide arbitrarily selected from another library (unrelated to TNFα), reference compound]”, in [3] (TNFα 0.04 ng/mL, peptide 0-25 μM, actinomycin D), the “protection of cells from TNFα-induced cell death” value is “no protective effect”. Also, the “KD for TNFα” value in assay [4] is given as “no detectable binding”.

For “Orn-Arg-nal-Arg-Fpa-Lys-phe-glu-Gly-Dap [Hit 105B]”, the “inhibition of binding of (FITC-labeled) cyclorasin B4 to K-Ras” value in assay [5] was “inhibited the binding of FITC-labeled B4 to K-Ras”. Further, the “effect on Ras-Raf interaction (bead staining)” value in [6] was “completely abolished”.

On to “TNFα: Tumor necrosis factor-alpha, cytokine used to induce cell death”, for which the “LD50 of TNFα in the absence of TNFα inhibitor” value in assay [3] (TNFα 0-250 ng/mL) came out at 0.46 ng/mL. Also, in assay [7], the “LD50 range of TNFα” value was 0.005 to 0.065 ng/mL. Consider “bicyclo(Ala-d-Leu-Phe-Arg-d-Asn-Pra-Ile-Asp-K-FNalR4-Dap)-K [Peptide 41]”, for which the pEC50 in [8] (24-hour treatment, peptide 0-40 μM, read-out: ED50, anti-proliferative activity) is ~5.05; in [8] (72 h, read-out: ED50, cell growth inhibition) it was ~5.15.

On to “bicyclo(Arg-Asp-Phg-Pra-d-Asn-K-FNalR4-Dap)-K (RD[Phg][Pra][dN]KF[dNal]RRRR[Dap]K-NH2; linker N-6-13 via trimesoyl″ (inferred); not fully specified; printed as bicyclo(Arg-Asp-Phg-Pra-d-Asn-K-FNalR4-Dap)-K) [Peptide 1]”, for which the “KD for K-Ras” value in [9] was “does not bind”.

Consider “bicyclo(Phg-Tyr-D-Ala-Lys-Tyr-D-Phe-Gly-D-Lys-His-Dap) [Necrostatin C1]”, for which, in assay [3] (TNFα 0-250 ng/mL), the “LD50 of TNFα in the presence of 50 μM Necrostatin C1” value came out at 1.8 ng/mL. The pIC50 in assay [10] was 5.51. In assay [4], this molecule showed a pKd of 6.35.

Take “nal-Ser-Gln-nal-Phg-Lys-phe-Arg-val-Arg-Dap [Hit 82]”: in [11], the “binding to GST-FKBP12” value is reported as “very weakly”. In addition, the “fold higher affinity for Ras-GTP and Ras-GPPNP than Ras-GDP” value in assay [12] is “approximately 8 fold”. In addition, in assay [6] (listed as cyclorasin B3), the “effect on Ras-Raf interaction (bead staining)” value is on record as “completely abolished; also recorded: abolished Ras-Raf interaction”.

The values are drawn from US9868767B2, “Chemical synthesis and screening of bicyclic peptide libraries” (OHIO STATE INNOVATION FOUNDATION, priority 2013, dated 2018).
